According to ChEMBL document CHEMBL1155440, “1-(5-carboxyindol-1-yl)propan-2-one inhibitors of human cytosolic phospholipase A(2)alpha with reduced lipophilicity: synthesis, biological activity, metabolic stability, solubility, bioavailability, and topical in vivo activity” (J Med Chem, 2010):
Converted amounts (≈) assume the structure as drawn. The source made the active and inactive calls. No cut-off for these calls is given here.

How the values were obtained:
Homo sapiens [1] = species: Homo sapiens; experiment: Inhibition of human platelet cPLA2alpha assessed as inhibition of arachidonic acid production at 1 uM after 60 mins by UV-reverse phase HPLC analysis
[2] = Thermodynamic solubility in sodium phosphate buffer of pH 7.4 by UV-reverse phase HPLC analysis; type: physicochemical
[3] = Metabolic stability in rat liver microsomes assessed as compound remaining after 30 mins by HPLC/MS analysis; type: ADME, Microsome; details: read-out: Stability
[4] = Partition coefficient, log P at 5 mM by reverse phase HPLC analysis; type: physicochemical; details: octanol/water
[5] = Drug level in C57Bl6 mouse plasma at 10 mg/kg, iv after 5 mins by UV-reverse phase HPLC analysis; type: ADME, organism-based; set-up: dose 10 mg/kg, route intravenous; details: read-out: Drug uptake
[6] = Drug level in C57Bl6 mouse plasma at 10 mg/kg, iv after 30 mins by UV-reverse phase HPLC analysis; type: ADME, organism-based; set-up: dose 10 mg/kg, route intravenous; details: read-out: Drug uptake
[7] = Drug level in C57Bl6 mouse plasma at 100 mg/kg, po after 1 hr by UV-reverse phase HPLC analysis; type: ADME, organism-based; set-up: dose 100 mg/kg, route oral; details: read-out: Drug uptake
[8] = Drug level in C57Bl6 mouse plasma at 100 mg/kg, po after 2 hrs by UV-reverse phase HPLC analysis; type: ADME, organism-based; set-up: dose 100 mg/kg, route oral; details: read-out: Drug uptake
[9] = Drug level in C57Bl6 mouse plasma at 10 mg/kg, po after 1 hr by UV-reverse phase HPLC analysis; type: ADME, organism-based; set-up: dose 10 mg/kg, route oral; details: read-out: Drug uptake
[10] = Drug level in C57Bl6 mouse plasma at 10 mg/kg, po after 2 hrs by UV-reverse phase HPLC analysis; type: ADME, organism-based; set-up: dose 10 mg/kg, route oral; details: read-out: Drug uptake
[11] = Drug level in C57Bl6 mouse bile at 10 mg/kg, iv after 30 mins by HPLC/MS analysis; type: ADME, organism-based; set-up: dose 10 mg/kg, route intravenous; details: read-out: Drug uptake
[12] = Drug level in C57Bl6 mouse bile at 100 mg/kg, po after 2 hrs by HPLC/MS analysis; type: ADME, organism-based; set-up: dose 100 mg/kg, route oral; details: read-out: Drug uptake
[13] = Inhibition of human platelet cPLA2alpha assessed as inhibition of arachidonic acid production after 60 mins by UV-reverse phase HPLC analysis; details: 1 h
[14] = molecular target: Phospholipase A2, major isoenzyme (Sus scrofa) (UniProt P00592); experiment: Inhibition of pig pancreas group 1B sPLA2 assessed as inhibition of POPG cleavage at 10 uM after 30 mins by HPLC analysis
Phospholipase A2, major isoenzyme (Sus scrofa), sequence (P00592 23-146 limits assumed): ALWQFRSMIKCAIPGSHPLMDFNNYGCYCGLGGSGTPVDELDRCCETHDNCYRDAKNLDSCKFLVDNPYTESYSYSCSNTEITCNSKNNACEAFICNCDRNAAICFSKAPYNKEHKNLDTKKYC

[15] = Inhibition of cPLA2alpha
Homo sapiens [16] = species: Homo sapiens; experiment: Inhibition of human platelet cPLA2alpha assessed as inhibition of arachidonic acid production at 33 nM after 60 mins by UV-reverse phase HPLC analysis
[17] = molecular target: T1, 85/88 kDa calcium-independent phospholipase A2 (Rattus norvegicus) (UniProt P97570); experiment: Inhibition of Sprague-Dawley rat brain iPLA2 assessed as inhibition of substrate cleavage at 10 uM after 60 mins by HPLC analysis
T1 sequence (whole entry): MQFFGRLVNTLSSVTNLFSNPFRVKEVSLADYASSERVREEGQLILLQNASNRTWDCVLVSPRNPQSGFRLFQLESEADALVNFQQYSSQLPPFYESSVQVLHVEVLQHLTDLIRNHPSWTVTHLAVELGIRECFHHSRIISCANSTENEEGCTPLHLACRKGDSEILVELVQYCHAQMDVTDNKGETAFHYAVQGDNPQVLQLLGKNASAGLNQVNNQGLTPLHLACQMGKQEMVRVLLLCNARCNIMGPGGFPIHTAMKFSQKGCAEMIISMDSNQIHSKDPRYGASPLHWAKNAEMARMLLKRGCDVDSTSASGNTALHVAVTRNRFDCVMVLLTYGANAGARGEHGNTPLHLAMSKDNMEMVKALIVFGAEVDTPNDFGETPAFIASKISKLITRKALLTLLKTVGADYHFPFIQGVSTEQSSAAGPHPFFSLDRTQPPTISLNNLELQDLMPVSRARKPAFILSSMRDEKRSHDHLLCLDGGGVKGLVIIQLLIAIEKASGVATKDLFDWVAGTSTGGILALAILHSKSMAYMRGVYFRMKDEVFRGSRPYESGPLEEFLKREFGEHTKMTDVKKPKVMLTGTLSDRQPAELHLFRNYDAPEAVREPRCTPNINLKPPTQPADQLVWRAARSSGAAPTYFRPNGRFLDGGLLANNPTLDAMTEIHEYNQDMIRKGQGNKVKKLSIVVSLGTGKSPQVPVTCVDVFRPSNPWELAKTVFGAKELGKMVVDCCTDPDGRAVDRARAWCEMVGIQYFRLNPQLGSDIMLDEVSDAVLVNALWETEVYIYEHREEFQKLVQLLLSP

| Compound | solubility thermodynamic [2] | remaining at 0.5 h [3] | logP at 5000 µM [4] | IC50 [13] | further results |
| --- | --- | --- | --- | --- | --- |
| CC(C)C(=O)c1cn(CC(O)COc2ccc(Oc3ccccc3)cc2)c2ccc(C(=O)O)cc12 (stereo unspecified) | – | – | – | – | concentration at 5 min [5]: 6200 ng/mL; concentration at 0.5 h [6]: 500 ng/mL; concentration at 1 h [7]: 1700 ng/mL; concentration at 2 h [8]: 300 ng/mL; concentration at 1 h [9]: 42000 ng/mL; concentration at 2 h [10]: 34000 ng/mL; concentration at 0.5 h [11]: 96000 ng/mL; concentration at 2 h [12]: 42000 ng/mL |
| O=C(COc1ccccc1-c1ccccc1)Cn1ccc2cc(C(=O)O)ccc21 | 21 µg/mL (≈ 54.5 µM) | 81% | 3.1 | – | inhibition (Homo sapiens [1]): inactive |
| O=C(O)CC[C@@H](Cc1ccc(OCc2ccccc2)cc1)NC(=O)CCCCCCc1ccccc1 | – | – | – | – | inhibition [14]: 89% |
| Cc1cc(-c2ccccc2)ccc1OCC(=O)Cn1ccc2cc(C(=O)O)ccc21 | < 3 µg/mL | 33% | – | > 1000 nM | inhibition (Homo sapiens [1]): 16% |
| CC(=O)c1cn(CC(=O)COc2ccc(Oc3ccc(C(F)(F)F)cc3)cc2)c2ccc(C(=O)O)cc12 | < 3 µg/mL | 73% | 3.5 | 10 nM | – |
| COc1ccc2c(c1)c(CC(=O)O)c(C)n2C(=O)c1ccc(Cl)cc1 [INDOMETHACIN] | 246 µg/mL (≈ 688 µM) | – | 2.9 | – | – |
| CC(C)(c1ccccc1)c1ccc(OCC(=O)Cn2ccc3cc(C(=O)O)ccc32)cc1 | 25 µg/mL (≈ 58.5 µM) | 0% | 4.1 | 47 nM | – |
| CCCCCCCCCOc1ccc(OCC(=O)Cn2ccc3cc(C(=O)O)ccc32)cc1 | < 3 µg/mL | 74% | 6.5 | 23 nM | – |
| CCCCCCCCc1ccc(OCC(=O)Cn2ccc3cc(C(N)=O)ccc32)cc1 | < 3 µg/mL | 54% | 5.5 | 120 nM | IC50 [15]: 35 nM |
| O=C(COc1ccc(-c2ccccc2)cc1)Cn1ccc2cc(C(=O)O)ccc21 | 5 µg/mL (≈ 13 µM) | 7% | 3.2 | 64 nM | – |
| CCCCCCCCCCOc1ccc(OCC(=O)Cn2ccc3cc(C(=O)O)ccc32)cc1 | < 3 µg/mL | 67% | 7.1 | 20 nM | – |
| O=C1O/C(=C/Br)CCC1c1cccc2ccccc12 (stereo unspecified) | – | – | – | – | inhibition [17]: 50% |
| O=C(COc1ccc(-c2ccc(F)cc2)cc1)Cn1ccc2cc(C(=O)O)ccc21 | < 3 µg/mL | 14% | 3.2 | 37 nM | – |
| O=C(COc1ccc(Oc2ccc(C(F)(F)F)cc2)cc1)Cn1ccc2cc(C(=O)O)ccc21 | < 3 µg/mL | 57% | 4 | 19 nM | – |
| O=C(COc1ccc(OCCOc2ccccc2)cc1)Cn1ccc2cc(C(=O)O)ccc21 | 31 µg/mL (≈ 69.6 µM) | 21% | 3.1 | 110 nM | – |
| O=C(COc1ccc(-c2cccc(F)c2)cc1)Cn1ccc2cc(C(=O)O)ccc21 | < 3 µg/mL | 22% | 3.2 | 41 nM | – |
| O=C(COc1ccc(-c2ccccc2)cc1Cl)Cn1ccc2cc(C(=O)O)ccc21 | < 3 µg/mL | 61% | 3.7 | > 1000 nM | inhibition (Homo sapiens [1]): 29% |

Second part, led by results:

| solubility thermodynamic [2] | remaining at 0.5 h [3] | logP at 5000 µM [4] | IC50 [13] | Compound | further results |
| --- | --- | --- | --- | --- | --- |
| 6 µg/mL (≈ 14.4 µM) | 72% | 2.9 | – | COc1cc(-c2ccccc2)ccc1OCC(=O)Cn1ccc2cc(C(=O)O)ccc21 | inhibition (Homo sapiens [1]): inactive |
| < 3 µg/mL | 57% | 5.2 | 32 nM | CCCCCCCOc1ccc(OCC(=O)Cn2ccc3cc(C(=O)O)ccc32)cc1 | – |
| < 3 µg/mL | 20% | 2.3 | – | NC(=O)c1ccc2c(ccn2CC(=O)COc2ccccc2-c2ccccc2)c1 | inhibition (Homo sapiens [1]): inactive |
| – | – | 6.3 | – | CCCCCCCCc1ccc(OCC(=O)Cn2ccc3cc(C(=O)O)ccc32)cc1 | IC50 [15]: 120 nM; inhibition (Homo sapiens [16]): 47% |
| < 3 µg/mL | 33% | 2.4 | 150 nM | NC(=O)c1ccc2c(ccn2CC(=O)COc2ccc(-c3ccccc3)cc2)c1 | – |
| < 3 µg/mL | 15% | 2.3 | 250 nM | NC(=O)c1ccc2c(ccn2CC(=O)COc2cccc(-c3ccccc3)c2)c1 | – |
| 5 µg/mL (≈ 12.4 µM) | 16% | 3.3 | 230 nM | O=C(COc1ccc(-c2ccccc2)cc1F)Cn1ccc2cc(C(=O)O)ccc21 | – |
| < 3 µg/mL | 79% | 5.9 | 26 nM | CCCCCCCCOc1ccc(OCC(=O)Cn2ccc3cc(C(=O)O)ccc32)cc1 | – |
| < 3 µg/mL | 40% | 4.7 | 35 nM | CC(C)c1ccc(-c2ccc(OCC(=O)Cn3ccc4cc(C(=O)O)ccc43)cc2)cc1 | – |
| < 3 µg/mL | 46% | 3.9 | 27 nM | O=C(COc1ccc(-c2ccc(Cl)cc2)cc1)Cn1ccc2cc(C(=O)O)ccc21 | – |
| 43 µg/mL (≈ 107 µM) | 3% | 3.1 | 36 nM | O=C(COc1ccc(Oc2ccccc2)cc1)Cn1ccc2cc(C(=O)O)ccc21 | – |
| 111 µg/mL (≈ 250 µM) | 41% | 2.6 | 12 nM | CC(=O)c1cn(CC(=O)COc2ccc(Oc3ccccc3)cc2)c2ccc(C(=O)O)cc12 | – |
| 18 µg/mL (≈ 45.1 µM) | 7% | 3.3 | 54 nM | O=C(COc1ccc(Cc2ccccc2)cc1)Cn1ccc2cc(C(=O)O)ccc21 | – |
| < 3 µg/mL | 22% | 3.7 | 40 nM | Cc1ccc(-c2ccc(OCC(=O)Cn3ccc4cc(C(=O)O)ccc43)cc2)cc1 | – |
| < 3 µg/mL | 2% | 3 | 90 nM | COc1ccc(-c2ccc(OCC(=O)Cn3ccc4cc(C(=O)O)ccc43)cc2)cc1 | – |
| < 3 µg/mL | 31% | 3.8 | 19 nM | O=C(COc1ccc(-c2cccc(Cl)c2)cc1)Cn1ccc2cc(C(=O)O)ccc21 | – |
| 34 µg/mL (≈ 69.7 µM) | 68% | 2.6 | 41 nM | CC(=O)c1cn(CC(=O)COc2ccc(OCCOc3ccccc3)cc2)c2ccc(C(=O)O)cc12 | – |
| 16 µg/mL (≈ 41.5 µM) | 13% | 3.1 | 210 nM | O=C(COc1cccc(-c2ccccc2)c1)Cn1ccc2cc(C(=O)O)ccc21 | – |
| 7 µg/mL (≈ 17.1 µM) | 38% | 4.6 | 34 nM | CCCCCCOc1ccc(OCC(=O)Cn2ccc3cc(C(=O)O)ccc32)cc1 | – |
